In the assay the test system is 817829-284-R-J1-PDC complex spheroid viability. Description: Anticancer human tumor 817829-284-R-J1-PDC patient-derived colon adenocarcinoma cell line growth inhibition [POLQ]. The note with it: for viability, T/C: stronger effect = lower value; for IC50: curve of compound. Here is the method: Multicellular complex tumor spheroid response to Polymerase (POL) inhibitors (novobiocin, ART-558, RP6685) in combination with a variety of drugs and investigational agents in selected tumor cell lines
The POL inhibitors (novobiocin, ART-558, and RP6685) were evaluated both individually and in combination with standard of care and investigational anticancer small molecules within a complex spheroid model of solid tumors. . Complex spheroids include a stromal component modeled by human endothelial cells (HUVEC) and fibroblasts modeled by human mesenchymal stem cells (MSCs). The concentration ranges selected for each drug and investigational agent were based upon clinically achievable concentrations if the clinical Cmax of the agent was known.
Compounds. The drugs and investigational agents: novobiocin (NSC847541), ART-558 (NSC835418), RP-6685 (NSC848927), peposertib (NSC802822), ceralasertib (NSC780249), elimusertib (NSC800525), camonsertib (NSC841442), AZD-1390 (NSC803789), olaparib (NSC753686), talazoparib (NSC767125), rucaparib (NSC756644), sotorasib (NSC818433), MRTX-1133 (NSC836407), SN-38 (NSC673596), topotecan (NSC609699), epotoside (NSC141540), doxorubicin (NSC123127), gemcitabine (NSC613327), 5-fluorouracil (NSC19893), paclitaxel (NSC125973), vemurafenib (NSC761431), MSA-2 (NSC828583), SN-011 (NSC837082), adavosertib (NSC754352), prexasertib (NSC758257), carboplatin (NSC241240) and oxaliplatin (NSC266046), were obtained from the National Cancer Institute (NCI) Developmental Therapeutics Program Chemical Repository (21). The FDA-approved anticancer drug set is available from the Developmental Therapeutics Program at https://dtp.cancer.gov/organization/dscb/obtaining/. […] The stock solutions were prepared in dimethyl sulfoxide (DMSO, Sigma-Aldrich, St. Louis, MO, cat. D2650), except for the platinum compounds which were prepared in saline (Quality Biological, Gaithersburg, MD, cat. 114-055-101), at 800-fold the tested concentration and stored at -70 degrees C prior to their use. All drugs and investigational agents were tested over a range starting from a high concentration at or near the clinical Cmax and decreasing in half-log increments. If the clinical Cmax for an agent had not been determined, the highest concentration tested was 10 microM, except for SN-38, which was tested at a high concentration of 1 microM.
Cell Culture. All cells were maintained in an incubator at 37 degrees C and 5% CO2 with 95% humidity. The PDC lines were cultured according to standard operating procedures established by the NCI PDMR (https://pdmr.cancer.gov). Table 3 of the manuscript, lists the cell lines along with the number of the three cell types plated to form the mct-spheroids and media for tumor cell growth. After thawing, all PDC lines, except 997537-175-T-J1-PDC and 415267-285-R-J2-PDC, were cultured in Matrigel-coated flasks prepared with a working solution of 1X Ham's F-12 nutrient mix, without supplementation (Thermo Fisher Scientific, cat. 11765054), 100 U/mL penicillin-streptomycin (Thermo Fisher Scientific, cat. 15140122), and 2.5% Matrigel (Corning Inc., Corning, NY, cat. 354248) for the first three passages. The two PDC lines 997537-175-T-J1-PDC and 415267-285-R-J2-PDC were cultured on uncoated flasks. The 857933-349-R-J2-PDC line was cultured in 6C/Colon 1B media containing advanced DMEM/F-12 (Thermo Fisher Scientific, cat. 12634028), 10 mM HEPES (Thermo Fisher Scientific, cat. 15630080), 1X GlutaMAX supplement (Thermo Fisher Scientific, cat. 35050061), 0.1 mg/mL primocin (InvivoGen, San Diego, CA, cat. ant-pm-2), 10% defined fetal bovine serum, heat inactivated (HyClone Laboratories Inc., Logan, UT, cat. SH30070.03HI), 50% L-WRN conditioned media (ATCC, cat. CRL-3276), 1.25 mM N-Acetyl-L-cysteine (Sigma-Aldrich, cat. A9165), 10 mM nicotinamide (Sigma-Aldrich, cat. N0636), 1X B-27 supplement (Thermo Fisher Scientific, cat. 17504044), 1X N-2 supplement (Thermo Fisher Scientific, cat. […]

Values joined by “and” are separate entries in the source; they are usually repeats but may differ in a detail not shown here. Equal entries are not always repeated.

The term viability, T/C denotes the ratio of treated to control. By IC50 is commonly meant the point on the concentration scale where inhibition reaches its midpoint.
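Also: spheroids exposed to compounds for 7 days.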

As to `CCc1cc2c(N3CCc4c(cc(Cn5ccnc5)cc4-c4cn(C)nc4C(F)(F)F)C3=O)ccnc2c(OC)n1`, the IC50 was 3920 nM and 4920 nM and 3550 nM. Further, the viability, T/C (compound 0.0316 µM) is 101% and 91.9% and 80.3%. Moreover, the viability, T/C (compound 0.1 µM) was 81% and 77.6% and 71.7%. The viability, T/C (compound 0.316 µM) was 88.4% and 77.1% and 66.4%. For the same compound, the viability, T/C (compound 1 µM) was 65.8% and 68.8% and 64.9%. The viability, T/C (compound 3.16 µM) was 54.2% and 59.5% and 53.1%. Moreover, the viability, T/C (compound 10 µM) is 34.8% and 38% and 33.4%.

On to `CNCc1ccc(-c2[nH]c3cc(F)cc4c3c2CCNC4=O)cc1`, for which the IC50 was 6530 nM and 6300 nM and 9450 nM. The viability, T/C (compound 0.0316 µM) was 86.8% and 88% and 73.1%. The viability, T/C (compound 0.1 µM) was 81.9% and 77.7% and 81.3%. Further, under “compound 0.316 µM”, the viability, T/C is 63.4% and 89.9% and 53.7%. For the same compound, the viability, T/C (compound 1 µM) is 68.6% and 81.8% and 58.3%. In addition, for the setting “compound 3.16 µM”, the viability, T/C was 51.3% and 64.6% and 58.9%. Besides, the viability, T/C (compound 10 µM) was 47.6% (2×) and 40.2%.

For the compound `COc1cc(C2c3cc4c(cc3C(OC3OC5COC(C)OC5C(O)C3O)C3COC(=O)C23)OCO4)cc(OC)c1O` (configuration not stated), the IC50 was 47.7 nM and 91.2 nM and 61.7 nM. Also, under “compound 0.0316 µM”, the viability, T/C is 60.4% and 73.7% and 73.4%. Further, the viability, T/C (compound 0.1 µM) is 32.3% and 48.6% and 33.4%. In addition, the viability, T/C (compound 0.316 µM) is 15.3% and 18.4% and 14.9%. The viability, T/C (compound 1 µM) was 19.1% and 18.8% and 20.4%. Also, the viability, T/C (compound 3.16 µM) was 16.7% and 11.9% and 11.2%. Also, under “compound 10 µM”, the viability, T/C is 6.7% and 6.64% and 6.97%.

With `COc1cc2cc(C(=O)CCC(=O)O)sc2cc1OC`, the IC50 is above 10000 nM. The viability, T/C (compound 0.0316 µM) is 114% and 112% and 90.4%. The viability, T/C (compound 0.1 µM) was 88.4% and 107% and 83.7%. Also, under “compound 0.316 µM”, the viability, T/C is 94% and 105% and 84%. Besides, the viability, T/C (compound 1 µM) was 81.1% and 89.5% and 102%. The viability, T/C (compound 3.16 µM) is 100% and 110% and 98.6%. The viability, T/C (compound 10 µM) is 88.8% and 101% and 63.2%.

For the compound `COc1ccc([C@@H](O)c2cc(-c3ncnc4cc(N5CCOCC5)ccc34)c(F)cc2Cl)nn1`, the IC50 is 684 nM and 894 nM and 830 nM. In addition, the viability, T/C (compound 0.0316 µM) was 79.4% and 93.7% and 78.8%. The viability, T/C (compound 0.1 µM) was 94.5% and 91% and 91.4%. For the same compound, the viability, T/C (compound 0.316 µM) is 65.4% and 72.2% and 74.5%. Also, where the note is “compound 1 µM”, the viability, T/C was 41% and 43.4% and 43.2%. The viability, T/C (compound 3.16 µM) is 30.4% and 40.3% and 25.8%. Also, the viability, T/C (compound 10 µM) is 19.4% and 22.7% and 12.3%.

For the compound `COc1cccc(OCCCN)c1-c1cc(Nc2cnc(C#N)cn2)n[nH]1`, the IC50 was < 3.16 nM and 6.13 nM and 5.89 nM. Also, the viability, T/C (compound 0.00316 µM) is 33.5% and 96.3% and 91.2%. The viability, T/C (compound 0.01 µM) was 8.6% and 15.6% and 14.9%. The viability, T/C (compound 0.0316 µM) was 6.55% and 5.13% and 5.86%. Further, the viability, T/C (compound 0.1 µM) was 4.87% and 4.67% and 4.64%. Further, for the setting “compound 0.316 µM”, the viability, T/C is 4.09% and 5.43% and 4.13%. For the same compound, the viability, T/C (compound 1 µM) was 3.68% (2×) and 3.24%.

On to `COc1cccc2c1C(=O)c1c(O)c3c(c(O)c1C2=O)CC(O)(C(=O)CO)CC3OC1CC(N)C(O)C(C)O1` (configuration not stated), for which the IC50 is < 31.6 nM and 114 nM. In addition, the viability, T/C (compound 0.0316 µM) is 16.9% and 19.5% and 19.8%. Besides, the viability, T/C (compound 0.1 µM) was 16.4% and 18.4% and 91.1%. Besides, the viability, T/C (compound 0.316 µM) was 5.17% and 6.51% and 6.09%. Moreover, where the note is “compound 1 µM”, the viability, T/C was 1.01% and 0.37% and 0.7%. Also, the viability, T/C (compound 3.16 µM) was 0.33% and 0.32% and 0.25%. The viability, T/C (compound 10 µM) is 0.58% and 0.63% and 0.52%.

Turning to `Cn1ncnc1[C@H]1c2n[nH]c(=O)c3cc(F)cc(c23)N[C@@H]1c1ccc(F)cc1`, the IC50 is 11.8 nM and 37.5 nM and 14.7 nM. In addition, under “compound 0.000316 µM”, the viability, T/C is 80.8% and 91.3% and 74.5%. Under “compound 0.001 µM”, the viability, T/C is 64% and 85.5% and 71.1%. For the same compound, the viability, T/C (compound 0.00316 µM) was 54.7% and 74.7% and 71.7%. Moreover, the viability, T/C (compound 0.01 µM) was 62.7% and 56.4% and 57.5%. The viability, T/C (compound 0.0316 µM) is 38.1% and 61.4% and 34%. Moreover, the viability, T/C (compound 0.1 µM) is 29.1% and 35.4% and 36.5%.

`Nc1ccn(C2OC(CO)C(O)C2(F)F)c(=O)n1` (configuration not stated): the IC50 was below 31.6 nM. Under “compound 0.0316 µM”, the viability, T/C was 5.66% and 4.03% and 5.85%. For the same compound, the viability, T/C (compound 0.1 µM) is 5.98% and 3.62% and 5.26%. Moreover, for the setting “compound 0.316 µM”, the viability, T/C was 6.49% and 4.28% and 5.54%. For the same compound, for the setting “compound 1 µM”, the viability, T/C is 5.15% and 3.77% and 4.65%. Further, the viability, T/C (compound 3.16 µM) is 4.26% and 2.95% and 4.25%. Where the note is “compound 10 µM”, the viability, T/C was 3.15% and 2.31% and 3.29%.

As to `O=C(Nc1ccc(O)c(NS(=O)(=O)c2ccc(F)cc2)c1)c1ccc(-c2ccccc2)cc1`, the IC50 is 6880 nM and 8170 nM and 7070 nM. Besides, under “compound 0.0316 µM”, the viability, T/C was 94% and 91.9% and 101%. For the same compound, the viability, T/C (compound 0.1 µM) is 96.5% and 104% and 103%. The viability, T/C (compound 0.316 µM) is 93.7% and 100% and 103%. For the setting “compound 1 µM”, the viability, T/C is 92.4% and 99.3% and 78.3%. The viability, T/C (compound 3.16 µM) is 73.5% and 88.2% and 76.5%. Further, the viability, T/C (compound 10 µM) was 38.7% and 41.5% and 39.8%.

With `O=c1[nH]cc(F)c(=O)[nH]1`, the IC50 is 3450 nM and 1970 nM and 7540 nM. Besides, the viability, T/C (compound 0.0316 µM) is 104% and 91.8% and 101%. Further, the viability, T/C (compound 0.1 µM) was 104% and 98.7% and 75.8%. Moreover, the viability, T/C (compound 0.316 µM) was 93% and 94.3% and 74.7%. Besides, the viability, T/C (compound 1 µM) was 69.7% and 67.1% and 72.8%. For the same compound, the viability, T/C (compound 3.16 µM) was 50.6% and 38.9% and 57.3%. Moreover, the viability, T/C (compound 10 µM) was 44.5% and 29.5% and 45.3%.
